Reference: PMC10059066, “Probing Serum Albumins and Cyclodextrins as Binders of the Mycotoxin Metabolites Alternariol-3-Glucoside, Alternariol-9-Monomethylether-3-Glucoside, and Zearalenone-14-Glucuronide” (Metabolites, 2023)
Where “and” joins values, the source holds several entries; their conditions need not be identical. Equal values may be shown once.

What was measured:
[1] = molecular target: T1, human serum albumin (HSA) (Homo sapiens, UniProt P02768); assay: Fluorescence quenching of human serum albumin by mycotoxins; assay type: binding; conditions: for HSA logKSV ± SEM (Stern–Volmer quenching constant): PBS pH 7.4, 25 °C, albumin 2 μM, mycotoxin 0–5 μM, n = 3; for Kd: fluorescence quenching, HyperQuad fitting, PBS pH 7.4, n = 3, read-out: HSA logK ± SEM (binding constant) (converted)
T1 construct: purchased Merck (Darmstadt, Germany)
T1 sequence (P02768 25-609): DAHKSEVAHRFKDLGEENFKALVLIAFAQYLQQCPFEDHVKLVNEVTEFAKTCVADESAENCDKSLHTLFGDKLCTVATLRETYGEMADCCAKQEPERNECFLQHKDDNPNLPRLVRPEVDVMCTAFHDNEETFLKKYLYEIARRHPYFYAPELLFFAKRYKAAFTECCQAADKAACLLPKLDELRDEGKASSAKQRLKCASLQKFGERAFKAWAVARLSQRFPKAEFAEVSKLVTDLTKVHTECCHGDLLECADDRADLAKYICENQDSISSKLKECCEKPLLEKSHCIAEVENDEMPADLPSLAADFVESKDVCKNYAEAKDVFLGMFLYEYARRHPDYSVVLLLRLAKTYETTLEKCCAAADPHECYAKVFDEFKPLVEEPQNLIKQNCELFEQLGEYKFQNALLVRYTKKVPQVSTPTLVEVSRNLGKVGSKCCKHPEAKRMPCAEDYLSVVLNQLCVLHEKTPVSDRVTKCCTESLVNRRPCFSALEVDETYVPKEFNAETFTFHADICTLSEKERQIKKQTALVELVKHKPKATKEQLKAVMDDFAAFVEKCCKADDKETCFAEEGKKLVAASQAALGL
Method: (§1) Fluorescence emission spectra were collected at 25 °C using a Hitachi F-4500 fluorescence spectrophotometer (Tokyo, Japan). The quenching effects of AG, AMG, and Z14Glr (each 0–5 μM) on the emission signals of albumins (2 μM each) were examined at 340 nm in phosphate-buffered saline (PBS, pH 7.4). UV–vis measurements were performed at 25 °C in PBS, employing a Jasco V730 UV–vis spectrophotometer (Tokyo, Japan). Thereafter, we corrected the inner-filter effects of the mycotoxins, as previously reported. Stern–Volmer quenching constants (KSV; L/mol) were calculated with the graphical application of the Stern–Volmer equation [11, 29]:(1) I0/I=1+KSV×Q where I0 and I are the emission intensities of the protein without and with the quencher, respectively, while [Q] is the concentration (mol/L) of the quencher (mycotoxin). The binding constants (K; L/mol) of mycotoxin–albumin complexes were determined with nonlinear fitting, using the HyperQuad2006 software (version 3.1; Protonic Software GmbH, Hanau, Germany), as described previously.
(§2) The interaction of a ligand molecule with albumin usually induces a decrease in the emission signal of the protein [33]; therefore, fluorescence quenching studies were performed. In PBS (pH 7.4), increasing amounts of AG, AMG, and Z14Glr were added to standard concentrations of human (HSA), bovine (BSA), porcine (PSA), or rat (RSA) serum albumins, after which the emission spectra were recorded.
(§3) The KSV and K values of mycotoxin–albumin complexes were determined using the Stern–Volmer equation (Equation (1)) and the HyperQuad2006 software (see data in Table 1 and Table 2, respectively). […] The logKSV and logK values of the mycotoxin–albumin complexes were in good agreement (Table 1 and Table 2).

[2] = molecular target: T2, bovine serum albumin (BSA) (Bos taurus, UniProt P02769); assay: Fluorescence quenching of bovine serum albumin by mycotoxins; assay type: binding; conditions: for BSA logKSV ± SEM (Stern–Volmer quenching constant): PBS pH 7.4, 25 °C, albumin 2 μM, mycotoxin 0–5 μM, n = 3; for Kd: fluorescence quenching, HyperQuad fitting, PBS pH 7.4, n = 3, read-out: BSA logK ± SEM (binding constant) (converted)
T2 construct: purchased Merck (Darmstadt, Germany)
T2 sequence (P02769 25-607): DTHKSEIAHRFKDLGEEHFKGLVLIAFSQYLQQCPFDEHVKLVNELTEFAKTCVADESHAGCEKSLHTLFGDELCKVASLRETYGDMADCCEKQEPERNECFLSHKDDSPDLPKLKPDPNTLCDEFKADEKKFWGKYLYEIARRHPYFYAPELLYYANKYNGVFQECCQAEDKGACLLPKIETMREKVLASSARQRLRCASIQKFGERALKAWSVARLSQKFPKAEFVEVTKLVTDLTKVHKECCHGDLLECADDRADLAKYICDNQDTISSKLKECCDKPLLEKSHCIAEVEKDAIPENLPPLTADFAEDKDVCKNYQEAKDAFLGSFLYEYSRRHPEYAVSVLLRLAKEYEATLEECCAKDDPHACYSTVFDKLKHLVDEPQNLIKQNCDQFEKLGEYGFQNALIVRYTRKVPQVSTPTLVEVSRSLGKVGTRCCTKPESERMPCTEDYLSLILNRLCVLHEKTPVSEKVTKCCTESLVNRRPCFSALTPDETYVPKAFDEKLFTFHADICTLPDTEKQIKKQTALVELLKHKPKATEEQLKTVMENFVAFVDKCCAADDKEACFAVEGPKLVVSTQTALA
Method: as §1, §2, §3

[3] = molecular target: T3, porcine serum albumin (PSA) (Sus scrofa, UniProt P08835); assay: Fluorescence quenching of porcine serum albumin by mycotoxins; assay type: binding; conditions: for PSA logKSV ± SEM (Stern–Volmer quenching constant): PBS pH 7.4, 25 °C, albumin 2 μM, mycotoxin 0–5 μM, n = 3; for Kd: fluorescence quenching, HyperQuad fitting, PBS pH 7.4, n = 3, read-out: PSA logK ± SEM (binding constant) (converted)
T3 construct: purchased Merck (Darmstadt, Germany)
T3 sequence (P08835 25-607): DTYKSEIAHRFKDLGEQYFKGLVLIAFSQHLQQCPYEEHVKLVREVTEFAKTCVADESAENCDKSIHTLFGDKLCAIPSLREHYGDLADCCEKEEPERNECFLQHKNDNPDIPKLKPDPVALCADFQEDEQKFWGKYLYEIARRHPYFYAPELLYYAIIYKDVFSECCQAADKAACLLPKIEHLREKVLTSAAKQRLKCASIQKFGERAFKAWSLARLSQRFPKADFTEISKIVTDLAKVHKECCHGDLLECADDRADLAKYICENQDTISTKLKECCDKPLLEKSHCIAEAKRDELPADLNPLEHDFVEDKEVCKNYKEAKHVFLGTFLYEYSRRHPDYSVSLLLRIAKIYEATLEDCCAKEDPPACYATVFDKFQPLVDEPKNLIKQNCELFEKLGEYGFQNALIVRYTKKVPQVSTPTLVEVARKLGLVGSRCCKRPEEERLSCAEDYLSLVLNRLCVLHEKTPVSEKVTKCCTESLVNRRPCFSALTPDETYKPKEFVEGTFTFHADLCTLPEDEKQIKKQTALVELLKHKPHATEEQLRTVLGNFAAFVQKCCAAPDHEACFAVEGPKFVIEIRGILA
Method: as §1, §2, §3

[4] = molecular target: T4, rat serum albumin (RSA) (Rattus norvegicus, UniProt P02770); assay: Fluorescence quenching of rat serum albumin by mycotoxins; assay type: binding; conditions: for RSA logKSV ± SEM (Stern–Volmer quenching constant): PBS pH 7.4, 25 °C, albumin 2 μM, mycotoxin 0–5 μM, n = 3; for Kd: fluorescence quenching, HyperQuad fitting, PBS pH 7.4, n = 3, read-out: RSA logK ± SEM (binding constant) (converted)
T4 construct: purchased Merck (Darmstadt, Germany)
T4 sequence (P02770 25-608): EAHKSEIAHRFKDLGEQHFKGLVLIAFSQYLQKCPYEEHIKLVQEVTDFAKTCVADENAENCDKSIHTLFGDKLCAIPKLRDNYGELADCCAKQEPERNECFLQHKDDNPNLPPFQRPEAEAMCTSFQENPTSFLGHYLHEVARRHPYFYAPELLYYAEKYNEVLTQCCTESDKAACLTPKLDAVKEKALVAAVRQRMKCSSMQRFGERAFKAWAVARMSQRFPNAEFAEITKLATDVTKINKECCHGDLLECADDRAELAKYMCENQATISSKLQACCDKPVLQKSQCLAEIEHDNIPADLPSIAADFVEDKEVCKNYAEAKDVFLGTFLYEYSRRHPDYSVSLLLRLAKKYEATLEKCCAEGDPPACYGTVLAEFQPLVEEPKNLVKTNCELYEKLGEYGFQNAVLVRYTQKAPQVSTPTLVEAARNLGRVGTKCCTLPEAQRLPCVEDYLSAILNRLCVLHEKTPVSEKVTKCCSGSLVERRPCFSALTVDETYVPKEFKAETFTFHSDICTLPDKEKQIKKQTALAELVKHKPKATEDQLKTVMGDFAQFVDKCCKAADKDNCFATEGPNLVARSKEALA
Method: as §1, §2, §3

[5] = molecular target: T1, human serum albumin (HSA); assay: Ultracentrifugation study of mycotoxin-HSA binding
Method: To confirm the data calculated based on fluorescence quenching studies, ultracentrifugation experiments were also performed. With the proper conditions of ultracentrifugation, albumin (with the bound ligands) can be sedimented. The samples (final volume: 500 μL) contained AG, AMG, or Z14Glr (5 μM each) with HSA (60 or 180 μM) dissolved in PBS. Centrifugation (16 h, 170,000× g, 20 °C) was performed using 11 × 34 mm PC tubes (Beckman Coulter, Brea, CA, US) and a Beckman Coulter Optima MAX-XP tabletop ultracentrifuge (fixed-angle rotor). The unbound fractions of mycotoxins were determined in the protein-free supernatant by HPLC-FLD (see details in Section 2.5), as previously reported. (3) K=[LA]/L×[A] where [L], [A], and [LA] are the concentrations (mol/L) of the ligand (unbound), albumin (unbound), and the ligand–albumin complex, respectively.
Furthermore, to test the impact of environmental pH on the stability of mycotoxin–albumin complexes, the abovementioned experiments were also performed in 0.05 M sodium acetate (pH 5.0) and 0.05 M sodium borate (pH 8.5) buffers.
To confirm the binding constants determined in the quenching experiments, and to get insight into the interaction of Z14Glr with HSA, ultracentrifugation studies were also performed. In these investigations, albumins (with the ligands bound) were sedimented, and then the concentrations of the unbound mycotoxins were quantified from the supernatants.

[6] = Fluorescence spectroscopic study of mycotoxin-SBECD complex formation; assay type: binding; conditions: for SBECD logK ± SEM (binding constant): Benesi–Hildebrand, 0.05 M sodium acetate pH 5.0, mycotoxin 1 μM, n = 3; for SBECD-induced increase in the emission signal of the mycotoxin: SBECD 0–10 mM, mycotoxin 1 μM, sodium acetate pH 5.0
Method: (§4) The impacts of SBECD (0–10 mM) and SGD (0–5 mM) on the emission signals of mycotoxins (1 μM each) were tested in sodium acetate buffer (0.05 M, pH 5.0). Mycotoxin–CD interactions were evaluated using the Benesi–Hildebrand equation [11, 31], assuming 1:1 stoichiometry of complex formation:(2) F0/F−F0=1/A+1/A×K×[CD] where K (L/mol) is the binding constant, F0 is the emission signal of the mycotoxin without the host molecules, F is the emission signal of the mycotoxin with CDs, A is a constant, and [CD] is the molar concentration (mol/L) of the host molecules.
(§5) Therefore, CD-induced elevation in the fluorescence emission intensities of mycotoxins was examined.
(§6) Based on the emission signals at 455 nm, the binding constants of ligand–CD complexes were calculated using the Benesi–Hildebrand equation (Equation (2)). Background corrections were performed in each experiment. […] Glucose and glucuronic acid are bulky, hydrophilic molecules; therefore, it is reasonable to hypothesize that these substituents make the inclusion of AG, AMG, and Z14Glr by the apolar CD cavity difficult.

[7] = Fluorescence spectroscopic study of mycotoxin-SGD complex formation; assay type: binding; conditions: for SGD logK ± SEM (binding constant): Benesi–Hildebrand, 0.05 M sodium acetate pH 5.0, mycotoxin 1 μM, n = 3; for SGD-induced increase in the emission signal of the mycotoxin: SGD 0–5 mM, mycotoxin 1 μM, sodium acetate pH 5.0
Method: as §4, §5, §6

[8] = Extraction of mycotoxins from aqueous solutions with β-cyclodextrin bead polymer; conditions: for decrease in mycotoxin concentration (extraction) by BBP: BBP 10 mg/mL, mycotoxin 5 μM, sodium acetate buffer pH 5.0, 40 min, 25 °C; for removal of mycotoxin by BBP at pH 10.0 compared with pH 5.0: sodium borate pH 10.0 vs sodium acetate pH 5.0, mycotoxin 5 μM
Method: (§7) The extraction of mycotoxins by insoluble (but water-swellable) CD bead polymers was tested in 0.05 M sodium acetate (pH 5.0) and 0.05 M sodium borate (pH 10.0) buffers. AG, AMG, alternariol, Z14Glr, and zearalenone solutions (5 μM each) were incubated with increasing amounts (0–10 mg/mL) of BBP or GBP in a thermomixer for 40 min at 1000 rpm and 25 °C. After pulse centrifugation (5000× g, 3 s), the mycotoxin contents of the supernatants were analyzed by HPLC-FLD (see Section 2.5).
(§8) The quantitative analyses of the examined mycotoxins were performed with a Jasco HPLC system (Tokyo, Japan) equipped with a binary pump (PU-4180), an autosampler (AS 4050), and a fluorescence detector (FP-920). Chromatograms were evaluated using the ChromNAV2 software (Jasco). Alternariol and zearalenone were analyzed as described previously. During the validation of our new HPLC-FLD methods, the linearity (LIN), limit of detection (LOD), limit of quantification (LOQ), and intraday repeatability (IDR) were determined as described previously.
(§9) AG and AMG were quantified using the following method: Isocratic elution of the samples (20 μL) was performed at room temperature with a 1 mL/min flow rate, employing phosphoric acid (1 mM) and acetonitrile (65:35 v/v%) as the mobile phase, where a Security Guard (C18, 4.0 × 3.0 mm; Phenomenex, Torrance, CA, US) precolumn was linked to a Kinetex EVO C18 (250 × 4.6 mm, 5 μm; Phenomenex) analytical column. Chromatograms were recorded, applying 335 nm and 455 nm excitation and emission wavelengths, respectively. The method validation parameters were as follows: AG (LIN: 0.2–5.0 μM, R^2 = 0.999; LOD = 0.05 μM; LOQ = 0.18 μM; IDR = 1.3%, n = 7); AMG (LIN: 0.2–5.0 μM, R^2 = 0.997; LOD = 0.15 μM; LOQ = 0.50 μM; IDR = 2.3%, n = 7).
(§10) Z14Glr was quantified using the following method: Isocratic elution of the samples (20 μL) was performed at room temperature with a 1 mL/min flow rate, employing 1% acetic acid solution and acetonitrile (65:35 v/v%) as the mobile phase, where a Security Guard (C8, 4.0 × 3.0 mm; Phenomenex) precolumn was linked to a Mediterranea See8 (C8, 150 × 4.6 mm, 5 μm; Teknokroma, Barcelona, Spain) analytical column. Chromatograms were recorded, applying 315 nm and 465 nm excitation and emission wavelengths, respectively. The method validation parameters for the HPLC analysis of Z14Glr were also determined (LIN: 0.2–5.0 μM, R^2 = 0.999; LOD = 0.15 μM; LOQ = 0.50 μM; IDR = 2.0%, n = 7).

[9] = Extraction of mycotoxins from aqueous solutions with γ-cyclodextrin bead polymer; conditions: GBP 0–10 mg/mL, mycotoxin 5 μM, sodium acetate buffer pH 5.0
Method: as §7, §8
as §9, with “The method validation parameters were as follows: AG (LIN: 0.2–5.0 μM, R^2 = 0.999; LOD = 0.05 μM; LOQ = 0.18 μM; IDR = 1.3%, n = 7); AMG (LIN: 0.2–5.0 μM, R^2 = 0.997; LOD = 0.15 μM; LOQ = 0.50 μM; IDR = 2.3%, n = 7).” left out
as §10, with “The method validation parameters for the HPLC analysis of Z14Glr were also determined (LIN: 0.2–5.0 μM, R^2 = 0.999; LOD = 0.15 μM; LOQ = 0.50 μM; IDR = 2.0%, n = 7).” left out

[10] = system: serum albumins (HSA, BSA, PSA, RSA); assay: Fluorescence quenching, summary over the tested albumins; assay type: binding, human, bovine, porcine, rat; conditions: PBS pH 7.4, approximate over the albumins tested
Method: as §1, §3

[11] = 0.05 M sodium acetate pH 5.0, mycotoxin 5 μM, n = 3, read-out: HSA pH 5.0 logK ± SEM (binding constant) (converted)
[12] = 0.05 M sodium borate pH 8.5, mycotoxin 5 μM, n = 3, read-out: HSA pH 8.5 logK ± SEM (binding constant) (converted)
[13] = PBS pH 7.4, mycotoxin 5 μM, n = 3, read-out: HSA pH 7.4 logK ± SEM (binding constant) (converted)

SMILES: Cc1cc(OC2O[C@H](CO)[C@@H](O)[C@H](O)[C@H]2O)cc2oc(=O)c3c(O)cc(O)cc3c12 (stereo partly drawn) [AG, alternariol-3-glucoside]
- HSA logKSV ± SEM (Stern–Volmer quenching constant) [1]: 4.48 ± 0.08 L/mol
- Kd [1]: 30.2 µM
- BSA logKSV ± SEM (Stern–Volmer quenching constant) [2]: 4.44 ± 0.04 L/mol
- Kd [2]: 34.7 µM
- PSA logKSV ± SEM (Stern–Volmer quenching constant) [3]: 4.38 ± 0.03 L/mol
- Kd [3]: 37.2 µM
- RSA logKSV ± SEM (Stern–Volmer quenching constant) [4]: 4.49 ± 0.03 L/mol
- Kd [4]: 29.5 µM
- Kd [5, 11]: 33.1 µM
- Kd [5, 12]: 39.8 µM
- Kd [5, 13]: 57.5 µM
- SBECD logK ± SEM (binding constant) [6]: 2.92 ± 0.05 L/mol
- SBECD-induced increase in the emission signal of the mycotoxin [6]: threefold elevation
- SGD logK ± SEM (binding constant) [7]: 3.19 ± 0.08 L/mol
- SGD-induced increase in the emission signal of the mycotoxin [7]: approximately sevenfold increase
- decrease in mycotoxin concentration (extraction) by BBP [8]: approximately 85%
- removal of mycotoxin by BBP at pH 10.0 compared with pH 5.0 [8]: significantly lower than at acidic pH
- removal of mycotoxin by GBP [9]: strongly reduced
- binding constant K of mycotoxin–albumin complexes [10]: ≈ 3 × 10^4 L/mol

SMILES: COc1cc(O)c2c(=O)oc3cc(OC4O[C@H](CO)[C@@H](O)[C@H](O)[C@H]4O)cc(C)c3c2c1 (stereo partly drawn) [AMG, alternariol-9-monomethylether-3-glucoside]
- HSA logKSV ± SEM (Stern–Volmer quenching constant) [1]: 4.38 ± 0.05 L/mol
- Kd [1]: 39.8 µM
- BSA logKSV ± SEM (Stern–Volmer quenching constant) [2]: 4.57 ± 0.02 L/mol
- Kd [2]: 25.7 µM
- PSA logKSV ± SEM (Stern–Volmer quenching constant) [3]: 4.27 ± 0.03 L/mol
- Kd [3]: 51.3 µM
- RSA logKSV ± SEM (Stern–Volmer quenching constant) [4]: 4.62 ± 0.02 L/mol
- Kd [4]: 22.4 µM
- affinity toward HSA at pH 8.5 relative to pH 5.0 [5]: approximately 17 fold
- Kd [5, 11]: 151 µM
- Kd [5, 12]: 8.91 µM
- Kd [5, 13]: 79.4 µM and 77.6 µM
- SBECD logK ± SEM (binding constant) [6]: 2.79 ± 0.08 L/mol
- SBECD-induced increase in the emission signal of the mycotoxin [6]: threefold elevation
- SGD logK ± SEM (binding constant) [7]: 3.45 ± 0.04 L/mol
- SGD-induced increase in the emission signal of the mycotoxin [7]: approximately sevenfold increase
- decrease in mycotoxin concentration (extraction) by BBP [8]: ~75%
- removal of mycotoxin by BBP at pH 10.0 compared with pH 5.0 [8]: did not show relevant pH dependence
- removal of mycotoxin by GBP [9]: strongly reduced
- binding constant K of mycotoxin–albumin complexes [10]: ≈ 3 × 10^4 L/mol
